The nature of data set [1]: Acute toxicity in female Wistar rat assessed as histopathological changes in heart at 100 to 500 mg/kg, po measured after 14 days. It counts as organism-based. The following applies: in vivo, 336 h, dose 100-500 mg/kg, time 14 day.
In data set [2] the target is Amyloid-beta precursor protein (Homo sapiens) (UniProt P05067). Nature of the data set: Inhibition of human AChE induced amyloid beta (1 to 42 residues) (unknown origin) aggregation assessed as reduction in NFI measured after 48 hrs by thioflavin T based fluorescence analysis. As to conditions: dose 5-20 µM.
Chain of Amyloid-beta precursor protein (Homo sapiens) (P05067 whole entry, the tested form may be a part): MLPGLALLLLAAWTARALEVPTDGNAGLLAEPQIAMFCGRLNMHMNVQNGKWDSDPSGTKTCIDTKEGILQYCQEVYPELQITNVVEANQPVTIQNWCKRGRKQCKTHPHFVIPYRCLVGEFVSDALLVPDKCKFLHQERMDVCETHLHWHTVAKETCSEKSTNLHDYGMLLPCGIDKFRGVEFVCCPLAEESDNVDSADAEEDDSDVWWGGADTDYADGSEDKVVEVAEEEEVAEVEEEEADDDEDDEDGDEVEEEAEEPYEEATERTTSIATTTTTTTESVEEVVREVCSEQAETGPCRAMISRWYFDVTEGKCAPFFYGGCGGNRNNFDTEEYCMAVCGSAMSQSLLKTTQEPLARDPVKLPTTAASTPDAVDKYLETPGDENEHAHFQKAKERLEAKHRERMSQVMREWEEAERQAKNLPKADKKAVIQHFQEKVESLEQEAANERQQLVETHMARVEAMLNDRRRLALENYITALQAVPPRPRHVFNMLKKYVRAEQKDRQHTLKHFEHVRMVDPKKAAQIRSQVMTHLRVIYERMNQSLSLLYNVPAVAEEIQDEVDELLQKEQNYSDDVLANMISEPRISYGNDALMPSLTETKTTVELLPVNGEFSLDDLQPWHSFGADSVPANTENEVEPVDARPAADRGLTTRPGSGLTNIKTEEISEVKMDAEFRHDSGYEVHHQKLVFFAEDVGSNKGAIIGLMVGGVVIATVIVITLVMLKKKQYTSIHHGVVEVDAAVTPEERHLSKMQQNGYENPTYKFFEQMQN
The test system of data set [3] is Drosophila melanogaster. The data set can be described thus: Reversal of ey-GAL4 driven UAS-amyloid beta induced cellular toxicity in Drosophila melanogaster Oregon R-positive model assessed as reduction in mild ommatidial death eye phenotype at 15 uM by trinocular stereo-zoom microscope relative to control. The format is functional. Details: scale not given: the % may be the effect or the level left.

Data set [4] relates to Drosophila melanogaster. Nature of the data set: Reversal of ey-GAL4 driven UAS-amyloid beta induced cellular toxicity in Drosophila melanogaster Oregon R-positive model assessed as increase in rescued eye phenotype at 5 uM by trinocular stereo-zoom microscope relative to control. The format is functional.
The next data set deals with Beta-secretase 1 (Homo sapiens, UniProt P56817). The data set can be described thus: Inhibition of human BACE-1 measured after 2 hrs by FRET assay.
Chain of Beta-secretase 1 (P56817 whole entry, the tested form may be a part): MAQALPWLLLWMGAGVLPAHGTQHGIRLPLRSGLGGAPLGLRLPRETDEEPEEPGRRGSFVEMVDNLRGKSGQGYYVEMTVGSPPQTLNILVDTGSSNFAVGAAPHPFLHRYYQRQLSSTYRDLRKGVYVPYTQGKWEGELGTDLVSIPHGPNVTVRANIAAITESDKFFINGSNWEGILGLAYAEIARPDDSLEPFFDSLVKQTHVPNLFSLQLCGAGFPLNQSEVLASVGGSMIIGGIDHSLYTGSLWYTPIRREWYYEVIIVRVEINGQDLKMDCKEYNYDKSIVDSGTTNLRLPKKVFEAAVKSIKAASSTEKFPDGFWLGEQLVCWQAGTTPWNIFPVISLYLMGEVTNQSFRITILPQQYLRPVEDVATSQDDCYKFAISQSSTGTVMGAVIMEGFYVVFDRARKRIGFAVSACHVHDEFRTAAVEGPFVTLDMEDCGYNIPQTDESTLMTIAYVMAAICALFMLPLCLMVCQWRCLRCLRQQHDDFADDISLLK
Data set [5] has as its system Drosophila melanogaster. The data set can be described thus: Reversal of ey-GAL4 driven UAS-amyloid beta induced cellular toxicity in Drosophila melanogaster Oregon R-positive model assessed as increase in rescued eye phenotype at 15 uM by trinocular stereo-zoom microscope relative to control. The format is functional.
In data set [6] the test system is Rattus norvegicus. Nature of the data set: Reversal of amyloid beta (1 to 42 residues) induced cognitive impairment in female Wistar rat assessed as reduction in BACE-1 level in brain hippocampus at 20 mg/kg, po pretreated with amyloid beta for 7 days followed by compound administration and measured after 5 days by immunohistochemistry analysis. As to conditions: time 5.0 day. The format is functional, organism-based.

The nature of data set [7]: Acute toxicity in female Wistar rat assessed as weight loss at 100 to 500 mg/kg, po measured upto 5 days. It counts as organism-based. As to conditions: in vivo, 120 h, dose 100-500 mg/kg, time < 5 day.
A short description of data set [8]: Elimination half life in male Wistar rat at 20 mg/kg, po measured upto 32 hrs by high-performance liquid chromatography. The format is ADME, organism-based. The following applies: in vivo, read-out: beta t1/2 (converted).
A short description of data set [9]: AUC (0 to t) in male Wistar rat at 20 mg/kg, po measured upto 32 hrs by high-performance liquid chromatography. The format is ADME, organism-based. The following applies: in vivo.
Data set [10] has as its target T1, Acetylcholinesterase (Homo sapiens, UniProt P22303). The data set can be described thus: Inhibition of human erythrocyte AChE using acetylthiocholine iodide as substrate preincubated for 30 mins followed by substrate addition and measured after 30 mins by DTNB based Ellman's method.
Data set [11] deals with Rattus norvegicus. The data set can be described thus: Reversal of amyloid beta (1 to 42 residues) induced cognitive impairment in female Wistar rat assessed as increase in total platform crossing at 20 mg/kg, po pretreated with amyloid beta for 7 days followed by compound administration and measured after 5 days by Morris water maze test. The format is functional, organism-based. As to conditions: time 5.0 day.

Data set [12] concerns Rattus norvegicus. Nature of the data set: Reversal of amyloid beta (1 to 42 residues) induced cognitive impairment in female Wistar rat assessed as increase in neuronal density in brain at 20 mg/kg, po pretreated with amyloid beta for 7 days followed by compound administration and measured after 5 days by Nissls staining based light microscopic analysis. It counts as functional, organism-based. The following applies: time 5.0 day.

Data set [13] can be described thus: Acute toxicity in female Wistar rat assessed as histopathological changes in liver at 100 to 500 mg/kg, po measured after 14 days. It counts as organism-based. The following applies: in vivo, 336 h, dose 100-500 mg/kg, time 14 day.
Data set [14] in a line: Toxicity in Drosophila melanogaster Oregon R-positive assessed as reduction in eclosed flies at pupal stage at 100 uM measured until 15 days relative to control. Details: scale not given: the % may be the effect or the level left. The following applies: 360 h, time 15 day.
For data set [15], the target named is T1, Acetylcholinesterase. Nature of the data set: Non-competitive inhibition of human AChE using acetylthiocholine iodide as substrate assessed as inhibition constant at 0.03 to 0.3 uM by Dixon plot analysis.

Activity calls are given as the source filed them. The calls are words filed in the database; no cut-off is given here.

As a reminder, the IC50 is the concentration at which inhibition is half-maximal. The term AUC(0-t) denotes the area under the concentration-time curve up to a stated or last time point. A word on the Ki: it is a measure of affinity in units of concentration, obtained from inhibition or displacement.

T1 sequence (P22303 whole entry, the tested form may be a part): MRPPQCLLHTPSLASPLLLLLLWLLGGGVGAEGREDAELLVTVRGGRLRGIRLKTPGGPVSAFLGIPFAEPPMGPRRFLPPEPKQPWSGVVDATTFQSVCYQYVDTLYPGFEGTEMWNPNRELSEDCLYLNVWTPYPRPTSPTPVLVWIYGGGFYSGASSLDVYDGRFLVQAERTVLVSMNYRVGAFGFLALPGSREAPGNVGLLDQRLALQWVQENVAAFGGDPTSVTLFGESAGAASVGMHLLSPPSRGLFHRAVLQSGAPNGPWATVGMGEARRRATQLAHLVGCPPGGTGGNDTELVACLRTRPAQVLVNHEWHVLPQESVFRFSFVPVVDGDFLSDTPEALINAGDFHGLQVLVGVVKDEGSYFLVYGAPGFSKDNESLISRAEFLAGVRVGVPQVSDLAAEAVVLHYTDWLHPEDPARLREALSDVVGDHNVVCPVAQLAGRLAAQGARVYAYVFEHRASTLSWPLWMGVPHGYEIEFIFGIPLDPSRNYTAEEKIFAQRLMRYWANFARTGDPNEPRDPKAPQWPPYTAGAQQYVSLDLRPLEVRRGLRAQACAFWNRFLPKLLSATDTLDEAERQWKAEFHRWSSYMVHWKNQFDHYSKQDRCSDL

Consider `COc1cc2ncnc(N3CCN(Cc4ccccc4)CC3)c2cc1OC`, for which the Activity entry was “Non-Toxic” in data set [1]; 30% in the data set with Drosophila melanogaster [3]; 27% in the data set with Drosophila melanogaster [4]; 57% in the data set on Drosophila melanogaster [5]; “Toxic” in [7]; “Non-Toxic” in [13]. Further, the Activity in [14] is 65%. Further, the inhibition result in [2] is “Dose-Dependent Effect”. Further, the results for the IC50 against Beta-secretase 1 and on Acetylcholinesterase [10] were 231 nM and 283 nM, respectively. For the same molecule, the outcome in the data set with Rattus norvegicus [6], with Rattus norvegicus [11] and in the data set with Rattus norvegicus [12] was Active. Besides, the half-life in data set [8] is 3.11 h. In [9], this molecule yielded an exposure AUC(0-t) at 32 h of 6990 ng·h/mL. For the same molecule, the Ki at Acetylcholinesterase [15] amounted to 246 nM.

The values are drawn from ChEMBL document CHEMBL5500373, “Lead optimization based design, synthesis, and pharmacological evaluation of quinazoline derivatives as multi-targeting agents for Alzheimer's disease treatment” (Eur J Med Chem, 2024).
